Data set [1] relates to P. aeruginosa GN_043, PmxR. Conditions: polymyxin-resistant. In outline:
(§1)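 Mid-log cultures grown in Mueller Hinton broth at 37° C were tested by 2-fold broth microdilution at 5×10^5 CFU/mL final. Compounds were dissolved in water and tested over a final range of 32 to 0.015 μg/mL.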

The subject of data set [2] is K. pneumoniae GN_102 PmxR. As to conditions: GN 102 PmxR. In outline: as §1
Another data set relates to K. pneumoniae ATCC 13883. Conditions: ATCC 13883. In outline:
as §1

Another data set deals with E. coli ATCC 25922. As to conditions: ATCC 25922. In outline: as §1
Another data set relates to A. baumannii GN_093 PmxR. As to conditions: GN 093 PmxR. In outline:
as §1

The test system of data set [3] is P. aeruginosa GN_105, PmxR. Conditions: GN 105, PmxR. In outline:
as §1

The subject of data set [4] is S. aureus ATCC 25923, MSSA. Conditions: ATCC 25923. In a few lines: as §1
The next data set concerns P. aeruginosa ATCC 27853. Conditions: ATCC 27853. In outline:
as §1

In another data set the test system is A. baumannii ATCC 19606. Conditions: ATCC 19606. In a few lines: as §1
The subject of data set [5] is K. pneumoniae GN_106, PmxR. Conditions: GN 106, PmxR. In a few lines: as §1
For data set [6], the system named is K. pneumoniae ATCC BAA-2146, NDM-1 pos. Conditions: ATCC BAA-2146. In a few lines:
as §1

Data set [7] deals with K. pneumoniae ATCC 700603, MDR. As to conditions: ATCC 700603. In a few lines: as §1
Another data set in a line: in vitro. As to conditions: human. In outline:
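Fluorescence read-out (excitation 560, emission 590) after a 2 h, 37 °C incubation with 5 μM resazurin, following 24 h compound treatment of cells plated at 4000 per well. CC50 values come from fitting dose–response curves of growth inhibition.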

Experimental findings from patent US11279733B2, “Peptide antibiotics” (priority 2017, dated 2022) are described below.

≈ marks a conversion by molar mass, not a printed value. Positions of bridges follow the written chain, without caps; N, C: chain ends. Non-standard residues stand in square brackets, D forms with d. Residues, ends and D or L forms follow the SMILES beside them. *: point of attachment. Decanoyl(3R-OH) = CCCCCCC[C@@H](O)CC(=O)*; 2Nal = N[C@@H](Cc1ccc2ccccc2c1)C(=O)O; dIgl = N[C@@H](C(=O)O)C1Cc2ccccc2C1; dDab = NCC[C@@H](N)C(=O)O; Dab = NCC[C@H](N)C(=O)O

`CCCCCCC[C@@H](O)CC(=O)N[C@H](CCN)C(=O)N[C@H]1CCNC(=O)[C@H](Cc2c[nH]c3ccccc23)NC(=O)[C@H](CCN)NC(=O)[C@H](CCN)NC(=O)[C@H](CC(C)C)NC(=O)[C@@H](C2Cc3ccccc3C2)NC(=O)[C@H](CCN)NC1=O` [compound 8826, nC10-3(R)OH-D-Dab-cyc[L-Dab-L-Dab-D-indanylgyl-L-Leu-L-Dab-L-Dab-L-Trp]] ({Decanoyl(3R-OH)}-[dDab][Dab][Dab][dIgl]L[Dab][Dab]W; lactam 2-C): in data set [1], the “MIC P. aeruginosa GN_043, PmxR” value was 4 mg/L (≈ 3.5 µM). Besides, the “MIC K. pneumoniae GN_102 PmxR” value in [2] stood at 8 mg/L (≈ 7 µM). The “MIC K. pneumoniae ATCC 13883” value against K. pneumoniae ATCC 13883 amounted to 8 mg/L (≈ 7 µM). In addition, the “MIC E. coli ATCC 25922” value against E. coli ATCC 25922 worked out at 8 mg/L (≈ 7 µM). For the same compound, in the data set with A. baumannii GN_093 PmxR, the “MIC A. baumannii GN_093 PmxR” value was 8 mg/L (≈ 7 µM). In addition, in [3], the “MIC P. aeruginosa GN_105, PmxR” value is 4 mg/L (≈ 3.5 µM). Moreover, the “MIC S. aureus ATCC 25923, MSSA” value in [4] stood at 4 mg/L (≈ 3.5 µM). The “MIC P. aeruginosa ATCC 27853” value in the data set with P. aeruginosa ATCC 27853 is 4 mg/L (≈ 3.5 µM). The “MIC A. baumannii ATCC 19606” value in the data set with A. baumannii ATCC 19606 is 8 mg/L (≈ 7 µM). The “MIC K. pneumoniae GN_106, PmxR” value in data set [5] came out at 8 mg/L (≈ 7 µM). In addition, in data set [6], the “MIC K. pneumoniae ATCC BAA-2146, NDM-1 pos” value is 4 mg/L (≈ 3.5 µM). For the same compound, the “MIC K. pneumoniae ATCC 700603, MDR” value in data set [7] turned out to be 8 mg/L (≈ 7 µM). In “in vitro”, this compound showed a CC50 at 24 h of 38 µM.

Consider `CCCCCCC[C@@H](O)CC(=O)N[C@H](CCN)C(=O)N[C@H]1CCNC(=O)[C@H](Cc2c[nH]c3ccccc23)NC(=O)[C@H](CCN)NC(=O)[C@H](CCN)NC(=O)[C@H](Cc2ccc3ccccc3c2)NC(=O)[C@@H](Cc2ccccc2)NC(=O)[C@H](CCN)NC1=O` [compound 8832, nC10-3(R)OH-D-Dab-cyc[L-Dab-L-Dab-D-Phe-L-2-NaphthylAla-L-Dab-L-Dab-L-Trp]] ({Decanoyl(3R-OH)}-[dDab][Dab][Dab][dF][2Nal][Dab][Dab]W; lactam 2-C), for which the “MIC P. aeruginosa GN_043, PmxR” value in data set [1] stood at 4 mg/L (≈ 3.33 µM). Further, in data set [2], the “MIC K. pneumoniae GN_102 PmxR” value was 16 mg/L (≈ 13.3 µM). Besides, the “MIC K. pneumoniae ATCC 13883” value in the data set with K. pneumoniae ATCC 13883 was 16 mg/L (≈ 13.3 µM). The “MIC E. coli ATCC 25922” value against E. coli ATCC 25922 worked out at 8 mg/L (≈ 6.66 µM). Besides, in the data set on A. baumannii GN_093 PmxR, the “MIC A. baumannii GN_093 PmxR” value worked out at 16 mg/L (≈ 13.3 µM). Further, in [3], the “MIC P. aeruginosa GN_105, PmxR” value worked out at 8 mg/L (≈ 6.66 µM). In addition, the “MIC S. aureus ATCC 25923, MSSA” value in data set [4] is 4 mg/L (≈ 3.33 µM). Moreover, the “MIC P. aeruginosa ATCC 27853” value in the data set on P. aeruginosa ATCC 27853 turned out to be 4 mg/L (≈ 3.33 µM). Further, the “MIC A. baumannii ATCC 19606” value with A. baumannii ATCC 19606 was 8 mg/L (≈ 6.66 µM). The “MIC K. pneumoniae GN_106, PmxR” value in data set [5] was 8 mg/L (≈ 6.66 µM). Moreover, in data set [6], the “MIC K. pneumoniae ATCC BAA-2146, NDM-1 pos” value worked out at 8 mg/L (≈ 6.66 µM). Further, in data set [7], the “MIC K. pneumoniae ATCC 700603, MDR” value amounted to 8 mg/L (≈ 6.66 µM). For the same compound, in “in vitro”, the CC50 at 24 h is 26 µM.

Take `CCCCCCC[C@@H](O)CC(=O)N[C@H](CCCNC(=N)N)C(=O)N[C@H]1CCNC(=O)[C@H](Cc2c[nH]c3ccccc23)NC(=O)[C@H](CCN)NC(=O)[C@H](CCN)NC(=O)[C@H](CC(C)C)NC(=O)[C@@H](Cc2ccccc2)NC(=O)[C@H](CCN)NC1=O` [compound 8884, nC10-3(R)OH-D-Arg-cyc[L-Dab-L-Dab-D-Phe-L-Leu-L-Dab-L-Dab-L-Trp]] ({Decanoyl(3R-OH)}-[dR][Dab][Dab][dF]L[Dab][Dab]W; lactam 2-C): the “MIC P. aeruginosa GN_043, PmxR” value in data set [1] was determined as 4 mg/L (≈ 3.41 µM). Further, the “MIC K. pneumoniae GN_102 PmxR” value in data set [2] stood at 32 mg/L (≈ 27.3 µM). The “MIC K. pneumoniae ATCC 13883” value with K. pneumoniae ATCC 13883 was 16 mg/L (≈ 13.6 µM). Further, the “MIC E. coli ATCC 25922” value in the data set with E. coli ATCC 25922 was found to be 4 mg/L (≈ 3.41 µM). In the data set with A. baumannii GN_093 PmxR, the “MIC A. baumannii GN_093 PmxR” value was determined as 32 mg/L (≈ 27.3 µM). Also, in data set [3], the “MIC P. aeruginosa GN_105, PmxR” value is 16 mg/L (≈ 13.6 µM). Besides, the “MIC S. aureus ATCC 25923, MSSA” value in data set [4] came out at 16 mg/L (≈ 13.6 µM). In addition, the “MIC P. aeruginosa ATCC 27853” value in the data set with P. aeruginosa ATCC 27853 came out at 4 mg/L (≈ 3.41 µM). Moreover, the “MIC A. baumannii ATCC 19606” value with A. baumannii ATCC 19606 is 32 mg/L (≈ 27.3 µM). In addition, the “MIC K. pneumoniae GN_106, PmxR” value in data set [5] was 16 mg/L (≈ 13.6 µM). Further, the “MIC K. pneumoniae ATCC BAA-2146, NDM-1 pos” value in data set [6] turned out to be 8 mg/L (≈ 6.82 µM). Also, the “MIC K. pneumoniae ATCC 700603, MDR” value in data set [7] was 4 mg/L (≈ 3.41 µM). Further, in “in vitro”, the CC50 at 24 h came to 73 µM.
